# Patent US7666890B2, “Synthesis and herbicidal activity of 1- (2-substituted benzo[d]thiazol-5-yl)-1H-1,2,4-triazol-5(4H)-one derivatives” (Huazhong Normal University, priority 2007, dated 2010)
# Key:
# Experiment in all cases: Test of herbicidal activities (greenhouse pot method)
# Type in all cases: in vivo
# Conditions in all cases: single dose 300 g ai./h, treated before/after germination, 15 days later, greenhouse pot
# Amaranthus retroflexus = tested on: Amaranthus retroflexus
# How it was run: (§1)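 Weeds were sown in soil-filled pots at 15–30 °C and treated once by spray tower at 300 g ai./h, either before emergence or post-emergence at the 2-leaf stage, in three replicates with an untreated control. Symptoms were scored 15 days later into five classes from A (≥90%) to E (<50%).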
# Brassica juncea = tested on: Brassica juncea
# How it was run: as §1
# Chenopodium album = tested on: Chenopodium album
# How it was run: as §1
# Digiatria sanguinalis = tested on: Digiatria sanguinalis
# How it was run: as §1
# Echinochloa crusgalli = tested on: Echinochloa crusgalli
# How it was run: as §1
# Setaria viridis = tested on: Setaria viridis
# How it was run: as §1
SMILES,Herbicidal activity Amaranthus retroflexus (inhibition level) (Amaranthus retroflexus),Herbicidal activity Brassica juncea (inhibition level) (Brassica juncea),Herbicidal activity Chenopodium album (inhibition level) (Chenopodium album),Herbicidal activity Digiatria sanguinalis (inhibition level) (Digiatria sanguinalis),Herbicidal activity Echinochloa crusgalli (inhibition level) (Echinochloa crusgalli),Herbicidal activity Setaria viridis (inhibition level) (Setaria viridis),"inhibition at 300 g/ha (Amaranthus retroflexus; Amaranthus retroflexus, 360 h, read-out: Herbicidal activity Amaranthus retroflexus (inhibition level)) [%]","inhibition at 300 g/ha (Brassica juncea; Brassica juncea, 360 h, read-out: Herbicidal activity Brassica juncea (inhibition level)) [%]","inhibition at 300 g/ha (Chenopodium album; Chenopodium album, 360 h, read-out: Herbicidal activity Chenopodium album (inhibition level)) [%]","inhibition at 300 g/ha (Digiatria sanguinalis; 360 h, read-out: Herbicidal activity Digiatria sanguinalis (inhibition level)) [%]","inhibition at 300 g/ha (Echinochloa crusgalli; Echinochloa crus-galli, 360 h, read-out: Herbicidal activity Echinochloa crusgalli (inhibition level)) [%]","inhibition at 300 g/ha (Setaria viridis; Setaria viridis, 360 h, read-out: Herbicidal activity Setaria viridis (inhibition level)) [%]"
CCCCSc1nc2cc(-n3nc(C)n(C(F)F)c3=O)c(Cl)cc2s1 [Compound 97],B (80 ≦ B < 90%),B (80 ≦ B < 90%),B (80 ≦ B < 90%),C (60 ≦ C < 80%),B (80 ≦ B < 90%),C (60 ≦ C < 80%),–,–,–,–,–,–
CCOC(=O)CSc1nc2cc(-n3nc(C)n(C(F)F)c3=O)c(Cl)cc2s1 [Compound 98],–,–,–,–,–,–,90 to 100,90 to 100,80 to 90,90 to 100,90 to 100,90 to 100
C=CCSc1nc2cc(-n3nc(C)n(C(F)F)c3=O)c(Cl)cc2s1 [Compound 99],B (80 ≦ B < 90%),B (80 ≦ B < 90%),C (60 ≦ C < 80%),B (80 ≦ B < 90%),A (90 ≦ A ≦ 100%),B (80 ≦ B < 90%),–,–,–,–,–,–
CCCSc1nc2cc(-n3nc(C)n(C(F)F)c3=O)c(Cl)cc2s1 [Compound 100],A (90 ≦ A ≦ 100%),A (90 ≦ A ≦ 100%),A (90 ≦ A ≦ 100%),B (80 ≦ B < 90%),B (80 ≦ B < 90%),C (60 ≦ C < 80%),–,–,–,–,–,–
Cc1nn(-c2cc3nc([S+]([O-])Cc4cccc(Cl)c4)sc3cc2F)c(=O)n1C (stereo not drawn) [Compound 103],A (90 ≦ A ≦ 100%),D (50 ≦ D < 60%),A (90 ≦ A ≦ 100%),B (80 ≦ B < 90%),E (E < 50%),B (80 ≦ B < 90%),–,–,–,–,–,–
Cc1ccccc1C[S+]([O-])c1nc2cc(-n3nc(C)n(C(F)F)c3=O)c(F)cc2s1 (stereo not drawn) [Compound 104],A (90 ≦ A ≦ 100%),A (90 ≦ A ≦ 100%),A (90 ≦ A ≦ 100%),C (60 ≦ C < 80%),C (60 ≦ C < 80%),C (60 ≦ C < 80%),–,–,–,–,–,–
Cc1ccc(C[S+]([O-])c2nc3cc(-n4nc(C)n(C(F)F)c4=O)c(F)cc3s2)cc1 (stereo not drawn) [Compound 105],B (80 ≦ B < 90%),B (80 ≦ B < 90%),B (80 ≦ B < 90%),C (60 ≦ C < 80%),D (50 ≦ D < 60%),B (80 ≦ B < 90%),–,–,–,–,–,–
Cc1ccc([N+](=O)[O-])c(C[S+]([O-])c2nc3cc(-n4nc(C)n(C(F)F)c4=O)c(F)cc3s2)c1 (stereo not drawn) [Compound 106],D (50 ≦ D < 60%),B (80 ≦ B < 90%),A (90 ≦ A ≦ 100%),D (50 ≦ D < 60%),D (50 ≦ D < 60%),B (80 ≦ B < 90%),–,–,–,–,–,–
Cc1nn(-c2cc3nc([S+]([O-])Cc4cccc(Cl)c4)sc3cc2Cl)c(=O)n1C(F)F (stereo not drawn) [Compound 107],A (90 ≦ A ≦ 100%),A (90 ≦ A ≦ 100%),B (80 ≦ B < 90%),B (80 ≦ B < 90%),B (80 ≦ B < 90%),D (50 ≦ D < 60%),–,–,–,–,–,–
